From patent US11634486B2, “Anti-SEZ6L2 antibodies and antibody drug conjugates” (Bluefin BioMedicine, Inc., priority 2016, dated 2023) come the findings set out here.

SMILES strings stand for the structures.

This assay concerns small cell lung cancer cell line NCI-H209. The assay can be described thus: ADC combined with PARP inhibitor, cell viability. Format: cell-based, human. The settings on record: olaparib 10 nM to 10 uM, six days.

Experimental: Briefly, the small cell lung cancer cell line NCI-H209, which expresses ˜10,000 copies of SEZ6L2 on the cell surface, was seeded onto 96 well plate at 5000 cells/well Immediately after seeding, 10 pM of 3E2-PBD or isotype control hIgG-PBD (bearing a drug antibody ratio (DAR) of 1.7 and 2.5 respectively) were added to the wells in complete culture medium. A PARP inhibitor (olaparib) was then added to these wells such that the final concentration ranged from 10 nM to 10 uM. The PARP inhibitor was also tested on cells without an ADC. Each treatment was replicated in 2 wells and after six days, the PARP inhibitor plus modulator-mediated PBD cytotoxicity was assessed by quantifying the remaining number of live cells using Cell Titer Glo™. Cell viability was graphed by Prism™ using ratio of cell viability of test conditions to that of control wells treated with growth medium only.

For `O=C(c1cc(Cc2n[nH]c(=O)c3ccccc23)ccc1F)N1CCN(C(=O)C2CC2)CC1` [olaparib, reference compound], the “percent viable cells, PARP inhibitor alone” value is on record as “responded in a dose dependent manner”.
